# Experiments:
# Format in all cases: cell-based, E. coli strain PQ37
# alkaline phosphatase = alkaline phosphatase activity in E. coli PQ37 culture; conditions: FIG. 1 curve b; beyond a certain concentration of genotoxic substance; 2 hours
# Excerpt: (§1) The micro-organism employed in the tests whose description follows is a transformed E. coli strain, named PQ37, deposited in the National Collection of Culture Micro-Organisms (C.N.C.M.) of the Pasteur Institute of Paris, under no. I-205 on the date of Sept. 24, 1982. The genetic characteristics of this micro-organism are as follows: F^- thr leu his-4 pyrD thi galE galK or T lacΔUI69 srl 300::Tn10 rpoB rpsL uvrA rfa trp::Muc^+ sfiA::Mud(AP, lac)c-Ts. It is constitutive for the synthesis of the alkaline phosphatase (Pho^c). […]
# (§2) A culture of the abovesaid micro-organism previously developed up to the exponential phase in LB culture medium (Bacto tryptone 10 g, Bacto yeast extract 5 g, NaC1 10 g, water Q.S.P. 1 1), also containing ampicillin, is diluted ten times either in fresh medium, or in the activation mixture described by AMES B.N. and Coll. […] After two hours incubation at 37° C. with shaking, the β-galoactosidase and alkaline phosphatase activities were determined.
# It is possible in particular to carry out the determination of the alkaline phosphatase under the following condition: 2.7 ml of T buffer (solution of 121 g of Tris (hydroxy-methyl)-aminomethane per liter, whose pH has been adjusted to 8.8 with HC1) were added to 0.3 ml of the cell culture. […] 5 minutes later, 1 ml of 2 N Tris is added to restore the color, which is measured in the spectrophotometer at 420 nm. […]
# β-galactosidase = β-galactosidase activity in E. coli PQ37 culture; conditions: FIG. 1 curve a; beyond a certain concentration of genotoxic substance; 2 hours
# Excerpt: The micro-organism employed in the tests whose description follows is a transformed E. coli strain, named PQ37, deposited in the National Collection of Culture Micro-Organisms (C.N.C.M.) of the Pasteur Institute of Paris, under no. I-205 on the date of Sept. 24, 1982. The genetic characteristics of this micro-organism are as follows: F^- thr leu his-4 pyrD thi galE galK or T lacΔUI69 srl 300::Tn10 rpoB rpsL uvrA rfa trp::Muc^+ sfiA::Mud(AP, lac)c-Ts. It is constitutive for the synthesis of the alkaline phosphatase (Pho^c).
# This strain has been obtained by genetic recombinations suitable to confer on it the above-indicated genotype, from the strain containing the recombinant sfiA::lacZ deposited at the C.N.C.M., under no. I-152 Apr. 13, 1981.
# A culture of the abovesaid micro-organism previously developed up to the exponential phase in LB culture medium (Bacto tryptone 10 g, Bacto yeast extract 5 g, NaC1 10 g, water Q.S.P. 1 1), also containing ampicillin, is diluted ten times either in fresh medium, or in the activation mixture described by AMES B.N. and Coll. (1975), "Mutation Research" 31, 347-364. Aliquot parts of 0.6 ml are distributed in glass test tubes each containing a certain dose of the substance under test. After two hours incubation at 37° C. with shaking, the β-galoactosidase and alkaline phosphatase activities were determined. […]
# [1] = system: sfiA::operon lacZ recombinant; conditions: FIG. 1 curve c; measured 2 hours after the start of the experiment; inhibitory concentrations
# Excerpt: FIGS. 2 and 3 contain the curves representing the variations of the logarithm of the abovesaid ratio, named below SOSIF (abbreviation of "SOS induction factor"), measurable in similar cultures, in the presence of different genotoxic substances, according to their respective concentrations in the culture media, in nanomoles per specimen tested.
# as §1
# as §2, with “determined. […]” for “determined.”
compound,measurement,setting,value
"O=[N+]([O-])c1cc[n+]([O-])c2ccccc12 [4NQO, 4-nitroquinoline-1-oxide]",alkaline phosphatase activity (inhibiting effect of the synthesis of the proteins),alkaline phosphatase,reduction
same,β-galactosidase activity (inhibiting effect of the synthesis of the proteins),β-galactosidase,reduction
same,SOSIF ratio at concentrations of the genotoxic substance which inhibit the synthesis of the proteins,[1],remains substantially constant
